Laboratory results: BindingDB's records for doi:10.1080/14756360701536455 (Pcsir Laboratories Complex, 2008)

How the values were obtained:
[1] = target: Carboxylic ester hydrolase (Equus caballus, UniProt Q9N1N9); assay: Cholinesterase Inhibition Assay; settings: pH 8; 25 °C
Procedure: Butyrylcholinesterase activity-inhibiting activities were measured by a slightly modified spectrophotometric method developed by Ellman. DTNB was used for the measurement of cholinesterase activity and butyrylthiocholine chloride was used as a substrate.

[2] = target: T1, Seed linoleate 13S-lipoxygenase-1 (Glycine max, UniProt P08170); assay: Lipoxygenase Inhibition Assay; settings: pH 8; 25 °C
T1 sequence (P08170 whole entry): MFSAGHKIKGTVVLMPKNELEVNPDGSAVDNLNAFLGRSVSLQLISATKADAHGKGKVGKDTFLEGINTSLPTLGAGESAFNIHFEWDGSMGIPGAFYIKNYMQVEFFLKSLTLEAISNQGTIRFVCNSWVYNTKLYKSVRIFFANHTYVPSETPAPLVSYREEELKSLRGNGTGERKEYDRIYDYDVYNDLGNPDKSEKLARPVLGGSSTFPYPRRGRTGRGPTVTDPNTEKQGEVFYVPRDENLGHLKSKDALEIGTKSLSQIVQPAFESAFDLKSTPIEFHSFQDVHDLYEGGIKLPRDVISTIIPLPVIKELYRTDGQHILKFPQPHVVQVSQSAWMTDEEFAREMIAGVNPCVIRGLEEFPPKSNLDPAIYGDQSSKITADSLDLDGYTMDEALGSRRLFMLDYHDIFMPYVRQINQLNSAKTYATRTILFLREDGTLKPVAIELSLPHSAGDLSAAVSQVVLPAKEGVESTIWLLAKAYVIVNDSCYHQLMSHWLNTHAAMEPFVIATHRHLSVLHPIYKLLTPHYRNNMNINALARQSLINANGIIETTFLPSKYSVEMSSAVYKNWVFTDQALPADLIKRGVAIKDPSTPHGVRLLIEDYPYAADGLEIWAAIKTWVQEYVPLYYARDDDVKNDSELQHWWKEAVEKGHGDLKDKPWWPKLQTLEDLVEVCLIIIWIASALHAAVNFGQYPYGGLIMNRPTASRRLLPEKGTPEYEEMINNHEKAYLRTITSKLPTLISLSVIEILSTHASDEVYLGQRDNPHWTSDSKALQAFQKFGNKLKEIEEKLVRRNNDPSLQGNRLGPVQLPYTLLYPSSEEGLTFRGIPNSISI
Procedure: LOX inhibiting activity was measured by modifying the spectrophotometric method developed by Tappel.

Chain of Carboxylic ester hydrolase (Q9N1N9 whole entry): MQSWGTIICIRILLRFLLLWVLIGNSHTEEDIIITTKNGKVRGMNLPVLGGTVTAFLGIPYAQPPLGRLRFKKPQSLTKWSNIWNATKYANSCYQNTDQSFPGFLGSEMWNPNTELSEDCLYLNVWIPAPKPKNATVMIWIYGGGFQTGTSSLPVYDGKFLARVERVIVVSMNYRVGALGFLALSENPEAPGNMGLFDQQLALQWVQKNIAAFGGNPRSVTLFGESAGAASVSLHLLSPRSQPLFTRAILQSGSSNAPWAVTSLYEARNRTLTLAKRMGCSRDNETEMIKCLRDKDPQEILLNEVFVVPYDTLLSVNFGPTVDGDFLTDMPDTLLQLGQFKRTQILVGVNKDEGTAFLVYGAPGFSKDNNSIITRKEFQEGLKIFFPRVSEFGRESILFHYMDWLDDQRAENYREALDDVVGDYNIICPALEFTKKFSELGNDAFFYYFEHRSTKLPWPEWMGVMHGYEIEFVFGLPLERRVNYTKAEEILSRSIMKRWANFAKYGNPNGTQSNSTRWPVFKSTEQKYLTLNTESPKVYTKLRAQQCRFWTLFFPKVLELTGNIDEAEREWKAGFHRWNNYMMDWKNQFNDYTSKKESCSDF

SMILES	IC50 [1] [µM]	IC50 [2] [µM]
N#CC(=C1Nc2ccccc2C1=O)c1c[nH]c2ccccc12 [2-[Cyano(3-indolyl)methylene]-3-indolone, 1]	23.5	39.1
C=CC(CC(=NOS(=O)(=O)O)SC1OC(CO)C(O)C(O)C1O)OC(=O)CC1(O)C(=O)Nc2ccccc21 (stereo not drawn) [3'-Hydroxyepiglucoisatisin, 3]	16.3	30.6
O=S(=O)(O)ON=C(Cc1cc2ccccc2n1S(=O)(=O)O)SC1OC(CO)C(O)C(O)C1O (stereo not drawn) [Sulfoglucobrassicin, 4]	24.8	41.9
O=C1C(O)C(CO)OC(Oc2c[nH]c3ccccc23)C1O (stereo not drawn) [Isatan B, 6]	47.6	53.8
C=CC(CC(=NOS(=O)(=O)O)SC1OC(CO)C(O)C(O)C1O)OC(=O)CC1C(=O)Nc2ccccc21 (stereo not drawn) [Epiglucoisatisin, 2]	19.7	33.7
O=C(O)CC(=O)OCC1OC(Oc2c[nH]c3ccccc23)C(O)C(=O)C1O (stereo not drawn) [Isatan A, 5]	43.4	49.3
COc1ccc2c3c1O[C@H]1C[C@@H](O)C=C(CN(C)C2)[C@H]31 [Galanthamine, 7]	8.5	–
